{
  "source": "patent US20240206465A1",
  "about": "“ACTIVE POLYMERIC FILMS AND POLYMERIC COMPOSITIONS” (Yissum Research Development Company of the Hebrew …, priority 2021, published 2024)",
  "key": {"[1]": {"test_system": "canine coronavirus", "conditions": "peptide assemblies deposited on the glass surface; cited from earlier work"}, "[2]": {"assay": "Thermogravimetric analysis (thermal stability)", "assay_type": "physicochemical", "conditions": "at 160° C.; contained the absorbed water; FIG. 4A", "procedure": "Thermogravimetric analysis (TGA). TGA measurements were performed using the TGA Q5000 system (TA instruments, USA) at a heating rate of 10° C./min under nitrogen atmosphere, starting from room temperature to 800° C. The results were analyzed using Universal Analysis 200 version 4.5 A build 4.5.0.5 software."}, "[3]": {"test_system": "T4 phage", "conditions": "peptide assemblies deposited on the glass surface; cited from earlier work"}},
  "note": "Square brackets hold non-standard residues; d marks the D form. Ends that are not written are not given here. Phe(4-F) = N[C@@H](Cc1ccc(F)cc1)C(=O)O; Dopa = N[C@@H](Cc1ccc(O)c(O)c1)C(=O)O",
  "data": [
    {"substance": "[Dopa]-[Phe(4-F)]-[Phe(4-F)]-OMe", "values": [
      {"measurement": "antiviral activity against canine coronavirus", "setting": "[1]", "result": "acted against"},
      {"measurement": "weight loss of the peptide (TGA)", "setting": "[2]", "result": "< 3", "unit": "wt %"},
      {"measurement": "antiviral activity against T4 phage", "setting": "[3]", "result": "acted against"}
    ]}
  ]
}
